Like-named read-outs stand apart in the source and are kept apart here.

What all share (experiment): TGFα-shedding assay-based GPCR screening with chimeric Gα subunit proteins
Common to all, as to assay type: cell-based

Assay [1] deals with T1, 348 GPCRs (Homo sapiens, UniProt P21917).
T1 sequence (P21917 1-419): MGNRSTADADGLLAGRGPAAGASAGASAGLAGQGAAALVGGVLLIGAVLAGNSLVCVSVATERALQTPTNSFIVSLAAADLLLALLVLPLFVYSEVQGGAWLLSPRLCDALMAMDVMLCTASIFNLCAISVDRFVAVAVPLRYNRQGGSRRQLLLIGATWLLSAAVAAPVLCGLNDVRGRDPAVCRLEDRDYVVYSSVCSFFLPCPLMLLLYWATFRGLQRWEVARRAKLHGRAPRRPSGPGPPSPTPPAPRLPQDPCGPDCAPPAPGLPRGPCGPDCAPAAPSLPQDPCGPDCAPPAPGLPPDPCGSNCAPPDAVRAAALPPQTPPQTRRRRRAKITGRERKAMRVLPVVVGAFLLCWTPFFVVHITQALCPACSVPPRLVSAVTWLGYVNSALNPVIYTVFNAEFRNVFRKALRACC
As to conditions: 10µM, Favipiravir 100μM.

Assay [2] has as its target T2, 348 GPCRs (Homo sapiens, UniProt P50052).
T2 construct: expressed in transfected cells; host or cells: HEK293A
T2 sequence (P50052 1-363): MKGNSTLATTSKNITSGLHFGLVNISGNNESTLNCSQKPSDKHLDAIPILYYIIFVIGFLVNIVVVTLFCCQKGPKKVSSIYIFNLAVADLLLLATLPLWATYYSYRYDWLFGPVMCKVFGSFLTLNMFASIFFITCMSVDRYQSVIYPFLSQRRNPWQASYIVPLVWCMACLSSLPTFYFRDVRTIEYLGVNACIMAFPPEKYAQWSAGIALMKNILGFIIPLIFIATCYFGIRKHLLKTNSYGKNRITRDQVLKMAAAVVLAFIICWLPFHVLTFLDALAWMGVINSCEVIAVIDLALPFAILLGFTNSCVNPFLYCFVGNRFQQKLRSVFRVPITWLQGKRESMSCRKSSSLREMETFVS
As to conditions: 10µM, Favipiravir 100μM.

The target in assay [3] is T3, 348 GPCRs (Homo sapiens, UniProt P08173).
T3 construct: expressed in transfected cells; host or cells: HEK293A
T3 sequence (P08173 1-479): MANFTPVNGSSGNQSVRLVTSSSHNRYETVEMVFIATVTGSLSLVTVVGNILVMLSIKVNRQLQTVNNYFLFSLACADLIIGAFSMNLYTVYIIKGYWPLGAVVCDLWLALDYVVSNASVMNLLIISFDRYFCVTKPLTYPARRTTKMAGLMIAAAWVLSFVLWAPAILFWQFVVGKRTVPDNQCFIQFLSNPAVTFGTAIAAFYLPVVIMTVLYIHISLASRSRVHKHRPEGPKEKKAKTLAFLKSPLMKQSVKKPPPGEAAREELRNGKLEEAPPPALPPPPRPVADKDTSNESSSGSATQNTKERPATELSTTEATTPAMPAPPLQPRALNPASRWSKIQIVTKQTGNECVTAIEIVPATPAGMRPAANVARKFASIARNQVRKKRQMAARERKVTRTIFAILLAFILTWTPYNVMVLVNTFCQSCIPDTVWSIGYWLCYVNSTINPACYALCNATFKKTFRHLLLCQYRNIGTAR

Assay [4] has as its target T4, 348 GPCRs (Homo sapiens, UniProt P04201).
T4 construct: expressed in transfected cells; host or cells: HEK293A
T4 sequence (P04201 1-325): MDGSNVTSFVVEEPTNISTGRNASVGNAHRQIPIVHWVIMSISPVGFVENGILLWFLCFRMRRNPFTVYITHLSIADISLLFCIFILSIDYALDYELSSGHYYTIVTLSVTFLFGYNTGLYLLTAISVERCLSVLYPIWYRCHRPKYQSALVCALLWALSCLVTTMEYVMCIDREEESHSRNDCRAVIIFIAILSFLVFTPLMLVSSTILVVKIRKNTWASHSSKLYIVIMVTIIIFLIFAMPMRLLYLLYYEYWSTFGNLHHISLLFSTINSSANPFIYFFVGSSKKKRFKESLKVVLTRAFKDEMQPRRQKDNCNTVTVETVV

Assay [5] addresses T5, 348 GPCRs (Homo sapiens, UniProt P35348).
T5 construct: expressed in transfected cells; host or cells: HEK293A
T5 sequence (P35348 1-466): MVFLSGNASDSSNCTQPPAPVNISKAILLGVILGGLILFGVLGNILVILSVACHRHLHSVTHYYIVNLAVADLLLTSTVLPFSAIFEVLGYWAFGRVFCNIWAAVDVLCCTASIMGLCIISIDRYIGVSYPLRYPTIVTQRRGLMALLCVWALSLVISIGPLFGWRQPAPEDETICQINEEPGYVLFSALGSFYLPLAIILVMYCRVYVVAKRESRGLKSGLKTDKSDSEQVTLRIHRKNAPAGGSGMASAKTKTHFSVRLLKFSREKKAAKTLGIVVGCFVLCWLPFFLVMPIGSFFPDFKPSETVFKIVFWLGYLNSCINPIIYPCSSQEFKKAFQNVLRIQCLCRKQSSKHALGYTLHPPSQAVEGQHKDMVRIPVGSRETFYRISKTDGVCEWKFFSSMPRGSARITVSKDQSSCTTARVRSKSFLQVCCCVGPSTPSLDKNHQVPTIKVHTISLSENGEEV

In assay [6] the target is T6, 348 GPCRs (Homo sapiens, UniProt P47898).
T6 construct: expressed in transfected cells; host or cells: HEK293A
T6 sequence (P47898 whole entry): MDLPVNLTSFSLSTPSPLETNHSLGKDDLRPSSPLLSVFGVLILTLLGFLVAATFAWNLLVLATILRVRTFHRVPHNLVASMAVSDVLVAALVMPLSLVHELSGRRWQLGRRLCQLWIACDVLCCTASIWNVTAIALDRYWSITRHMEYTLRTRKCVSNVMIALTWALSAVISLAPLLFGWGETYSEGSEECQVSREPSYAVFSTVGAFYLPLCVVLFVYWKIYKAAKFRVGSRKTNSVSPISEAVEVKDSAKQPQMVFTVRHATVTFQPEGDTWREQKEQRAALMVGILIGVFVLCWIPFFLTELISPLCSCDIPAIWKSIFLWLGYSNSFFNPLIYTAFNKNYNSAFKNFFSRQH
To be noted: 10µM, Favipiravir 100μM.

Assay [7] addresses T7, 348 GPCRs (Homo sapiens, UniProt P25090).
T7 sequence (P25090 1-351): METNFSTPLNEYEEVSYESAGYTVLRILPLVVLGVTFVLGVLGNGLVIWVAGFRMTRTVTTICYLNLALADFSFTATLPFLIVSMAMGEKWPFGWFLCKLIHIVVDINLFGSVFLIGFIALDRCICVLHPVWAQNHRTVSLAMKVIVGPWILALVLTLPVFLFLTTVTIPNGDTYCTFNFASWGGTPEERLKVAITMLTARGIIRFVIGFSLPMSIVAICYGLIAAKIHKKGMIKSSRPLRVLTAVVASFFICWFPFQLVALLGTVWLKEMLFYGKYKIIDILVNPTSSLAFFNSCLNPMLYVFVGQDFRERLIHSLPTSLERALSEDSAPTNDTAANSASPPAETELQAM
To be noted: 10µM, Favipiravir 100μM.

[8] abbreviates: D4 (dopamine receptor D4), read-out: % GPCR activation compared to TPA.
[9] abbreviates: AGTR2 (angiotensin II receptor, type 2), read-out: % GPCR activation compared to TPA.
Where [10] appears, read: 5-HT5A (5-hydroxytryptamine receptor 5A), read-out: % GPCR activation compared to TPA.
Setting [11] is: FPR2 (formyl peptide receptor 2), read-out: % GPCR activation compared to TPA.
Where [12] appears, read: read-out: % GPCR activation compared to TPA, D4 (dopamine receptor D4).
The mark [13] stands for this setting: read-out: % GPCR activation compared to TPA, AGTR2 (angiotensin II receptor, type 2).
Where [14] appears, read: read-out: % GPCR activation compared to TPA, GPCR M4 (Muscarinic acetylcholine receptor M4).
Where [15] appears, read: read-out: % GPCR activation compared to TPA, GPCR MAS1 (MAS1 oncogene).
Where [16] appears, read: read-out: % GPCR activation compared to TPA, GPCR α1A (adrenoceptor alpha 1A).
[17] abbreviates: read-out: % GPCR activation compared to TPA, 5-HT5A (5-hydroxytryptamine receptor 5A).
The mark [18] stands for this setting: read-out: % GPCR activation compared to TPA, FPR2 (formyl peptide receptor 2).
[19] abbreviates: GPCR M4 (Muscarinic acetylcholine receptor M4), read-out: % GPCR activation compared to TPA.
Setting [20] is: GPCR MAS1 (MAS1 oncogene), read-out: % GPCR activation compared to TPA.
The mark [21] stands for this setting: GPCR α1A (adrenoceptor alpha 1A), read-out: % GPCR activation compared to TPA.

As for `NC(=O)c1nc(F)cnc1O` [favipiravir, 6-fluoro-3-hydroxy-2-pyrazinecarboxamide], the activation at 100 µM at 348 GPCRs [1] (setting [8]) is 2.6%; at 348 GPCRs [3] (GPCR M4 (Muscarinic acetylcholine receptor M4), 100μM, read-out: % GPCR activation compared to TPA), -6.29%; at 348 GPCRs [4] (GPCR MAS1 (MAS1 oncogene), 100μM, read-out: % GPCR activation compared to TPA) it was -7.84%; on 348 GPCRs [5] (GPCR α1A (adrenoceptor alpha 1A), 100μM, read-out: % GPCR activation compared to TPA) it was 0.574%; at 348 GPCRs [6] (setting [10]), -2.45%; at 348 GPCRs [7] (setting [11]), -3.31%. The activation at 10 µM on 348 GPCRs [2] (setting [9]) was 0.741%.
For the compound `CC(C)OC(=O)[C@H](C)N[P@](=O)(OC[C@H]1O[C@@H](n2ccc(=O)[nH]c2=O)[C@](C)(F)[C@@H]1O)Oc1ccccc1` [sofosbuvir], the activation at 100 µM at 348 GPCRs [1] (setting [12]) was -2.21%; on 348 GPCRs [6] (setting [17]), -0.524%; on 348 GPCRs [7] (setting [18]) it was -1.57%. The activation at 10 µM at 348 GPCRs [2] (setting [13]) is 1.67%; on 348 GPCRs [3] (setting [14]), -1.57%; on 348 GPCRs [4] (setting [15]), 2.48%; at 348 GPCRs [5] (setting [16]) it was 0.301%.
Regarding `CCC(CC)COC(=O)[C@H](C)N[P@](=O)(OC[C@H]1O[C@@](C#N)(c2ccc3c(N)ncnn23)[C@H](O)[C@@H]1O)Oc1ccccc1` [remdesivir], the activation at 100 µM at 348 GPCRs [1] (setting [12]) is 4.84%; on 348 GPCRs [6] (setting [17]), -0.876%; at 348 GPCRs [7] (setting [18]) it was -0.745%. In addition, the activation at 10 µM is 0.676% on 348 GPCRs [2] (setting [13]), -2.98% at 348 GPCRs [3] (setting [14]), 21.3% on 348 GPCRs [4] (setting [15]) and 0.479% at 348 GPCRs [5] (setting [16]).
For the compound `N#C[C@@]1(c2ccc3c(N)ncnn23)O[C@H](CO)[C@@H](O)[C@H]1O` [GS441524], the activation at 100 µM is 3.32% on 348 GPCRs [1] (setting [8]), -3.98% at 348 GPCRs [6] (setting [10]) and -0.97% at 348 GPCRs [7] (setting [11]). Further, the activation at 10 µM on 348 GPCRs [2] (setting [9]) was 0.337%; at 348 GPCRs [3] (setting [19]) it was -4.09%; on 348 GPCRs [4] (setting [20]) it was -19.1%; at 348 GPCRs [5] (setting [21]), 0.0114%.
As for `CC(C)C(=O)OC[C@H]1O[C@@H](n2ccc(NO)nc2=O)[C@H](O)[C@@H]1O` [molnupiravir], the activation at 100 µM was -1.43% at 348 GPCRs [1] (setting [8]), -1.01% at 348 GPCRs [6] (setting [10]) and -1.5% at 348 GPCRs [7] (setting [11]). For the same compound, the activation at 10 µM at 348 GPCRs [2] (setting [9]) was 0.537%; at 348 GPCRs [3] (setting [19]), -1.11%; at 348 GPCRs [4] (setting [20]), -15.3%; on 348 GPCRs [5] (setting [21]) it was 0.335%.

Values taken from article PMC10175918 (Communications Biology, 2023).
